From patent US12459951B2, “Compounds that interact with RAS superfamily proteins for treatment of cancers, inflammatory diseases, rasopathies, and fibrotic disease” (SHY Therapeutics, LLC, priority 2022, dated 2025)

What was measured:
[1] = tested on: Smad2/Smad3 phosphorylation; assay: Phospho-Smad2/3 Inhibition Assay (western blot), Panc-1; format: cell-based, human; conditions: at 10 μM, Panc-1 pancreatic cancer cell line; starred symbols = activation
How it was run: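 Panc-1 cells (KRas G12D), starved overnight in 0.5% FBS, treated 3 h at 37° C with compound at 10 μM final (0.3% DMSO) or serial dilutions for IC50, then stimulated with 10 ng/ml TGF-b1 for 1 h. Phospho-Smad2 (Ser465/467) and phospho-Smad3 (Ser423/425) detected by western blot.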

Akt phosphorylation = assay: Akt Phosphorylation Assay (western blot), Panc-1; format: cell-based, human; conditions: at 10 μM, * = activation
How it was run: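 Panc-1 (KRas G12D) cells were treated with compound at 10 μM final (0.3% DMSO) for 6 h at 37 °C, or with serial dilutions for IC50. Cells were either serum-starved overnight in 0.5% FBS and then stimulated with 1.5 ng/ml EGF for 15 min, or kept in 10% FBS without stimulation. Akt Ser473 phosphorylation in lysates was read by western blot.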

IL6 = assay: IL-6 Quantification Assay (ELISA), LPS-stimulated RAW 264.7; format: cell-based; design: inhibition: dose or concentration left out as unconfirmed; conditions: Mus musculus, RAW264.7; read-out: IL-6: % inh.

| SMILES | % inh of Smad2/3 phosphorylation in Panc-1 [1] | % inh of Akt phosphorylation in Panc-1 (Akt phosphorylation) | inhibition (IL6) [%] |
| --- | --- | --- | --- |
| COc1ccnc(Nc2nc(-c3nccn3C)nn3cc(-c4c(F)cccc4OC)c(-c4ccccc4)c23)c1 [Compound 217, 6-(2-Fluoro-6-methoxyphenyl)-N-(4-methoxypyridin-2-yl)-2-(1-methyl-1H-imidazol-2-yl)-5-phenylpyrrolo[2,1-f][1,2,4]triazin-4-amine] | C (C = 46-75% inhibition) | D* (85-100% activation) | 75 to 100 |
| COCCCNC(=O)c1c(-c2ccn(C)n2)cn2nc(-c3nccn3C)nc(N[C@H]3CC[C@H](OC)C3)c12 (racemic) [Compound 184, rac 4-(((1S,3S)-3-methoxycyclo-pentyl)amino)-N-(3-methoxypropyl)-2-(1-methyl-1H-imidazol-2-yl)-6-(1-methyl-1H-pyrazol-3-yl)pyrrolo[2,1-f][1,2,4]triazine-5-carboxamide] | B* (B* = 26-45% activation) | A* (1-25% activation) | 25 to 49 |
| Cc1c(-c2ccn(C)n2)cn2nc(-c3nccn3C)nc(Nc3ccc(-n4ccnc4)cn3)c12 [Compound 242, N-(5-(1H-Imidazol-1-yl)pyridin-2-yl)-5-methyl-2-(1-methyl-1H-imidazol-2-yl)-6-(1-methyl-1H-pyrazol-3-yl)pyrrolo[2,1-f][1,2,4]triazin-4-amine] | A (A = 1-25% inhibition) | D* (85-100% activation) | 25 to 49 |
| CO[C@H]1CC[C@H](Nc2nc(-c3nccn3C)nn3cc(-c4ccncc4)c(-c4ccccc4)c23)C1 (racemic) [Compound 201, rac N-((1S,3S)-3-Methoxycyclopentyl)-2-(1-methyl-1H-imidazol-2-yl)-5-phenyl-6-(pyridin-4-yl)pyrrolo[2,1-f][1,2,4]triazin-4-amine] | A (A = 1-25% inhibition) | B (26-49% inhibition) | 75 to 100 |
| Cc1c(-c2ccn(C)n2)cn2nc(-c3nccn3C)nc(Nc3ccc(OC(F)(F)F)cn3)c12 [Compound 232, 5-Methyl-2-(1-methyl-1H-imidazol-2-yl)-6-(1-methyl-1H-pyrazol-3-yl)-N-(5-(trifluoro-methoxy)pyridin-2-yl)pyrrolo[2,1-f][1,2,4]triazin-4-amine] | B (B = 26-45% inhibition) | D* (85-100% activation) | 25 to 49 |
| Cc1c(-c2ccn(C)n2)cn2nc(-c3nccn3C)nc(Nc3cc(C(C)(C)O)ccn3)c12 [Compound 240, 2-(2-((5-Methyl-2-(1-methyl-1H-imidazol-2-yl)-6-(1-methyl-1H-pyrazol-3-yl)pyrrolo[2,1-f][1,2,4]triazin-4-yl)amino)pyridin-4-yl)propan-2-ol] | 0 (0 = 0% inhibition) | D* (85-100% activation) | 50 to 74 |
| Cc1c(-c2ccn(C)n2)cn2nc(-c3nccn3C)nc(Nc3ccc(N(C)C)cn3)c12 [Compound 227, N5,N5-Dimethyl-N2-(5-methyl-2-(1-methyl-1H-imidazol-2-yl)-6-(1-methyl-1H-pyrazol-3-yl)pyrrolo[2,1-f][1,2,4]triazin-4-yl)pyridine-2,5-diamine] | C (C = 46-75% inhibition) | D* (85-100% activation) | 50 to 74 |
| COc1cc(Nc2nc(-c3nccn3C)nn3cc(-c4ccn(C)n4)c(C)c23)ncc1C [Compound 235, N-(4-Methoxy-5-methylpyridin-2-yl)-5-methyl-2-(1-methyl-1H-imidazol-2-yl)-6-(1-methyl-1H-pyrazol-3-yl)pyrrolo[2,1-f][1,2,4]triazin-4-amine] | 0 (0 = 0% inhibition) | D* (85-100% activation) | 50 to 84 |
| COc1ccnc(Nc2nc(-c3nccn3CCNC(=O)CCCC[C@H]3SC[C@H]4NC(=O)N[C@H]43)nn3cc(-c4ccn(C)n4)c(C)c23)c1 [Compound 216, N-(2-(2-(4-((4-methoxypyridin-2-yl)amino)-5-methyl-6-(1-methyl-1H-pyrazol-3-yl)pyrrolo[2,1-f][1,2,4]triazin-2-yl)-1H-imidazol-1-yl)ethyl)-5-((3aR,4R,6aS)-2-oxohexahydro-1H-thieno[3,4-d]imidazol-4-yl)pentanamide] | C* (C* = 46-75% activation) | A* (1-25% activation) | 50 to 74 |
| CO[C@H]1CC[C@H](Nc2nc(-c3nccn3C)nn3cc(-c4ccn(C)n4)c(C(=O)NC4CC4)c23)C1 (racemic) [Compound 182, rac N-Cyclopropyl-4-(((1S,3S)-3-methoxycyclo-pentyl)amino)-2-(1-methyl-1H-imidazol-2-yl)-6-(1-methyl-1H-pyrazol-3-yl)pyrrolo[2,1-f][1,2,4]triazine-5-carboxamide] | A* (A* = 1-25% activation) | B* (26-49% activation) | 25 to 49 |
| COC1CCCN(c2nc(-c3ccccn3)nn3cc(-c4ccn(C(C)C)n4)c(C)c23)C1 (racemic) [Compound 12, rac 6-(1-Isopropyl-1H-pyrazol-3-yl)-4-(3-methoxypiperidin-1-yl)-5-methyl-2-(pyridin-2-yl)pyrrolo[2,1-f][1,2,4]triazine] | 0 (0 = 0% inhibition) | 0 (0% inhibition) | 25 to 49 |
| COc1ccnc(Nc2nc(-c3nccn3C)nn3cc(-c4ccn(C)n4)c(C(=O)NC4CC4)c23)c1 [Compound 175, N-Cyclopropyl-4-((4-methoxypyridin-2-yl)amino)-2-(1-methyl-1H-imidazol-2-yl)-6-(1-methyl-1H-pyrazol-3-yl)pyrrolo[2,1-f][1,2,4]triazine-5-carboxamide] | B* (B* = 26-45% activation) | D* (85-100% activation) | 75 to 100 |
| CO[C@H]1C[C@H](Nc2nc(-c3nccn3C)nn3cc(-c4cccc5c4CCO5)c(-c4ccccc4)c23)C1 [Compound 210, 6-(2,3-Dihydrobenzofuran-4-yl)-N-((1r,3r)-3-methoxycyclobutyl)-2-(1-methyl-1H-imidazol-2-yl)-5-phenylpyrrolo[2,1-f][1,2,4]triazin-4-amine] | D (D = 76-100% inhibition) | D (85-100% inhibition) | 75 to 100 |
| Cc1c(-c2ccn(C)n2)cn2nc(-c3nccn3C)nc(Nc3ccc(C(F)F)cn3)c12 [Compound 234, N-(5-(Difluoromethyl)pyridin-2-yl)-5-methyl-2-(1-methyl-1H-imidazol-2-yl)-6-(1-methyl-1H-pyrazol-3-yl)pyrrolo[2,1-f][1,2,4]triazin-4-amine] | D (D = 76-100% inhibition) | D* (85-100% activation) | 1 to 24 |
